Counter-ions that a name gives are not always drawn. Like-named read-outs stand apart in the source and are kept apart here.
What was measured:
[1] = molecular target: T1, SARS-CoV-2 PLpro (nsp3 1564–1878) (Severe acute respiratory syndrome coronavirus 2, UniProt P0DTD1); experiment: biochemical; set-up: FRET-quenched peptide (Pro3) cleavage by PLpro, 10 min pre-incubation, slope over 20 min, normalised to no-compound control; conditions: low concentration screen, read-out: % of control remaining
[2] = molecular target: T1, SARS-CoV-2 PLpro (nsp3 1564–1878); experiment: biochemical; set-up: FRET-quenched peptide (Pro3) cleavage by PLpro, 10 min pre-incubation, slope over 20 min, normalised to no-compound control; conditions: high concentration screen, read-out: % of control remaining

**Q.** How did the remaining activity at 1.25 µM ([1]; Well no.=5914) turn out when `COc1cc(/C=C/C(=O)NCCn2c(C)cc3ccccc32)cc(OC)c1OC` [(E)-N-(2-(2-methyl-1H-indol-1-yl)ethyl)-3-(3,4,5-trimethoxyphenyl)acrylamide] was run?
**A.** 103%

**Q.** And the remaining activity at 3.75 µM ([2]; Well no.=5914)?
**A.** 99.4%

**Q.** For `CCN(CC)CCCC(C)Nc1c2ccc(Cl)cc2nc2ccc(OC)cc12` (stereo not shown) [Quinacrine], which remaining activity at 1.25 µM ([1]; Well no.=2187) is on record?
**A.** 96.6%

**Q.** And the remaining activity at 3.75 µM ([2]; Well no.=2187)?
**A.** 97.2%

**Q.** `CC[C@@H](C(=O)[C@@H](C)[C@@H](O)[C@H](C)[C@@H]1O[C@@H]([C@@H](CC)C(=O)O)CC[C@@H]1C)[C@H]1O[C@]2(C=C[C@@H](O)[C@]3(CC[C@@](C)([C@H]4CC[C@](O)(CC)[C@H](C)O4)O3)O2)[C@H](C)C[C@@H]1C` [Salinomycin] was tested. Which remaining activity at 1.25 µM ([1]; Well no.=3499) did it give?
**A.** 104%

**Q.** And the remaining activity at 3.75 µM ([2]; Well no.=3499)?
**A.** 102%

**Q.** For `COc1cc(/C=C/C(=O)N2CCN(CC(=O)N3CCCC3)CC2)cc(OC)c1OC` [Cinepazide maleate], which remaining activity at 1.25 µM ([1]; Well no.=5271) is on record?
**A.** 95.9%

**Q.** What about the remaining activity at 3.75 µM ([2]; Well no.=5271) of the same compound?
**A.** 96.6%

**Q.** What does the source list for `CNC(C)Cc1ccccc1OC` (stereo not shown) [Methoxyphenamine (Hydrochloride)]?
**A.** remaining activity at 1.25 µM ([1]; Well no.=8577): 109%; remaining activity at 3.75 µM ([2]; Well no.=8577): 105%

**Q.** What does the source list for `CC(=O)N[C@@H](CS)C(=O)O` [N-Acetyl-Cysteine]?
**A.** remaining activity at 1.25 µM ([1]; Well no.=4036): 97.8%; remaining activity at 3.75 µM ([2]; Well no.=4036): 96.7%

**Q.** For `Cc1onc(-c2ccccc2)c1C(=O)N[C@@H]1C(=O)N2[C@@H]1SC(C)(C)[C@@H]2C(=O)O` [Oxacillin], which remaining activity at 1.25 µM ([1]; Well no.=2057) is on record?
**A.** 105%

**Q.** What about the remaining activity at 3.75 µM ([2]; Well no.=2057) of the same compound?
**A.** 103%

**Q.** With `COc1ccccc1OCC(O)CN1CCN(CC(=O)Nc2c(C)cccc2C)CC1` (stereo not shown) [Ranolazine dihydrochloride] as the compound, how does the remaining activity at 1.25 µM ([1]; Well no.=1254) read?
**A.** 108%

**Q.** What about the remaining activity at 3.75 µM ([2]; Well no.=1254) of the same compound?
**A.** 106%

**Q.** With `CC(C)=CCC[C@](C)(O)[C@H]1CC[C@]2(C)[C@@H]1[C@H](O)C[C@@H]1[C@@]3(C)CC[C@H](O[C@@H]4O[C@H](CO)[C@@H](O)[C@H](O)[C@H]4O)C(C)(C)[C@@H]3CC[C@]12C` [Ginsenoside Rh2] as the compound, how does the remaining activity at 1.25 µM ([1]; Well no.=6590) read?
**A.** 98.4%

**Q.** And the remaining activity at 3.75 µM ([2]; Well no.=6590)?
**A.** 102%

**Q.** How did the remaining activity at 1.25 µM ([1]; Well no.=464) turn out when `NCCS(=O)O` [Hypotaurine] was run?
**A.** 102%

**Q.** And the remaining activity at 1.25 µM ([1]; Well no.=7779)?
**A.** 106%

**Q.** What about the remaining activity at 3.75 µM ([2]; Well no.=464) of the same compound?
**A.** 102%

**Q.** And the remaining activity at 3.75 µM ([2]; Well no.=7779)?
**A.** 103%

**Q.** Which remaining activity at 1.25 µM ([1]; Well no.=1098) does the source give for `CCCCCCCCCCCCCCCC(=O)OC(CC(=O)O)C[N+](C)(C)C` (racemic) [Palmitoyl-DL-Carnitine chloride] here?
**A.** 86.5%

**Q.** What about the remaining activity at 3.75 µM ([2]; Well no.=1098) of the same compound?
**A.** 85.4%

**Q.** For `COc1cc(NC(=O)CCN2CCC(OC(=O)Nc3ccccc3-c3ccccc3)CC2)c(Cl)cc1CNC[C@H](O)c1ccc(O)c2[nH]c(=O)ccc12` [Batefenterol], which remaining activity at 1.25 µM ([1]; Well no.=7045) is on record?
**A.** 106%

**Q.** And the remaining activity at 3.75 µM ([2]; Well no.=7045)?
**A.** 109%

**Q.** `CN1[C@@H]2C[C@@H](OC(=O)[C@H](CO)c3ccccc3)C[C@H]1[C@@H]1O[C@@H]12` [Scopolamine] was tested. Which remaining activity at 1.25 µM ([1]; Well no.=2245) did it give?
**A.** 100%

**Q.** And the remaining activity at 3.75 µM ([2]; Well no.=2245)?
**A.** 100%

**Q.** How did the remaining activity at 1.25 µM ([1]; Well no.=126) turn out when `Nc1ncnc2c1nc(Sc1ccc(Cl)cc1)n2C1OC2COP(=O)(O)O[C@@H]2[C@@H]1O` (stereo partly shown) [8-(4-Chlorophenylthio)-cAMP sodium] was run?
**A.** 104%

**Q.** And the remaining activity at 3.75 µM ([2]; Well no.=126)?
**A.** 105%

**Q.** For `Oc1cc(Cl)ccc1Oc1ccc(Cl)cc1Cl` [Triclosan], which remaining activity at 1.25 µM ([1]; Well no.=8252) is on record?
**A.** 101%

**Q.** And the remaining activity at 3.75 µM ([2]; Well no.=8252)?
**A.** 98.2%

**Q.** `CN[C@@H](C)C(=O)N[C@H]1CN(C(=O)CC(C)C)CC[C@H]2CC[C@@H](C(=O)NC(c3ccccc3)c3ccccc3)N2C1=O` [AT-406] was tested. Which remaining activity at 1.25 µM ([1]; Well no.=5071) did it give?
**A.** 102%

**Q.** And the remaining activity at 3.75 µM ([2]; Well no.=5071)?
**A.** 106%

**Q.** How did the remaining activity at 1.25 µM ([1]; Well no.=4885) turn out when `N#C[C@@H]1CCCN1C(=O)CNC12CC3CC(CC(O)(C3)C1)C2` [Vildagliptin (LAF-237)] was run?
**A.** 99.1%

**Q.** What about the remaining activity at 3.75 µM ([2]; Well no.=4885) of the same compound?
**A.** 99.9%

**Q.** For `CC(=O)N[C@@H]1C[C@H](NC(C)(C)C)CC[C@@H]1N1CC[C@H](Nc2ncnc3cc(C(C)(C)C)nn23)C1=O` [BMS-813160], which remaining activity at 1.25 µM ([1]; Well no.=8217) is on record?
**A.** 103%

**Q.** And the remaining activity at 3.75 µM ([2]; Well no.=8217)?
**A.** 100%

**Q.** `CN(C)C(=O)N=NC(=O)N(C)C` [N,N,N',N'-Tetramethylazodicarboxamide] was tested. Which remaining activity at 1.25 µM ([1]; Well no.=735) did it give?
**A.** 94.9%

**Q.** And the remaining activity at 3.75 µM ([2]; Well no.=735)?
**A.** 98.5%

**Q.** What does the source list for `O=C(c1cc(O)c(O)c([N+](=O)[O-])c1)c1ccccc1F` [Ro 41-0960]?
**A.** remaining activity at 1.25 µM ([1]; Well no.=1162): 102%; remaining activity at 3.75 µM ([2]; Well no.=1162): 104%

**Q.** How did the remaining activity at 1.25 µM ([1]; Well no.=3516) turn out when `c1ccc2c(Cc3c[nH]c4ccccc34)c[nH]c2c1` [Diindolylmethane] was run?
**A.** 102%

**Q.** What about the remaining activity at 1.25 µM ([1]; Well no.=4509) of the same compound?
**A.** 88.9%

**Q.** And the remaining activity at 3.75 µM ([2]; Well no.=3516)?
**A.** 104%

**Q.** What about the remaining activity at 3.75 µM ([2]; Well no.=4509) of the same compound?
**A.** 92.4%

**Q.** For `O=C(O)c1cccnc1` [Nicotinic Acid], which remaining activity at 1.25 µM ([1]; Well no.=8286) is on record?
**A.** 95.6%

**Q.** And the remaining activity at 3.75 µM ([2]; Well no.=8286)?
**A.** 96.4%

**Q.** For `CN(C[C@@H]1COCCO1)S(=O)(=O)Nc1ccc2ccc3ncc(-c4cnn(C)c4)cc3c(=O)c2c1` [MK-2461], which remaining activity at 1.25 µM ([1]; Well no.=4737) is on record?
**A.** 105%

**Q.** What about the remaining activity at 3.75 µM ([2]; Well no.=4737) of the same compound?
**A.** 105%

**Q.** What does the source list for `CCCCCCCCCCC/C=C/CCCCC(=O)O` [6(E)-Octadecenoic acid]?
**A.** remaining activity at 1.25 µM ([1]; Well no.=4318): 105%; remaining activity at 3.75 µM ([2]; Well no.=4318): 99.5%

**Q.** For `CC(CN(C)C)NC(=O)c1cccc2[nH]c(-c3ccncc3)nc12` (stereo not shown) [ChX710], which remaining activity at 1.25 µM ([1]; Well no.=8551) is on record?
**A.** 108%

**Q.** And the remaining activity at 3.75 µM ([2]; Well no.=8551)?
**A.** 101%

**Q.** How did the remaining activity at 1.25 µM ([1]; Well no.=3158) turn out when `CCCCCC[C@H]1C(=O)O[C@H](C)[C@H](NC(=O)c2cccc(NC=O)c2O)C(=O)O[C@@H](C)[C@@H]1OC(=O)CC(C)C` [Antimycin A1] was run?
**A.** 98.9%

**Q.** And the remaining activity at 3.75 µM ([2]; Well no.=3158)?
**A.** 98.6%

**Q.** Which results are given for `CCn1cc(C(=O)O)c(=O)c2cc(F)c(N3CCNC(C)C3)c(F)c21` (stereo not shown) [Lomefloxacin]?
**A.** remaining activity at 1.25 µM ([1]; Well no.=2272): 95.3%; remaining activity at 3.75 µM ([2]; Well no.=2272): 96.1%

**Q.** What does the source list for `CCCn1c(=O)[nH]c(=O)c2[nH]cnc21` [3-n-Propylxanthine]?
**A.** remaining activity at 1.25 µM ([1]; Well no.=910): 105%; remaining activity at 3.75 µM ([2]; Well no.=910): 104%

**Q.** What does the source list for `C[C@@H]1O[C@@H](OC[C@H]2O[C@@H](Oc3c(-c4ccc(OCCO)c(OCCO)c4)oc4cc(OCCO)cc(O)c4c3=O)[C@H](O)[C@@H](O)[C@@H]2O)[C@H](O)[C@H](O)[C@H]1O` [Troxerutin]?
**A.** remaining activity at 1.25 µM ([1]; Well no.=4866): 95.4%; remaining activity at 3.75 µM ([2]; Well no.=4866): 93.8%

**Q.** Which remaining activity at 1.25 µM ([1]; Well no.=7916) does the source give for `Cc1cn([C@H]2C=C[C@@H](CO)O2)c(=O)[nH]c1=O` [Stavudine] here?
**A.** 99.6%

**Q.** And the remaining activity at 3.75 µM ([2]; Well no.=7916)?
**A.** 96.8%

**Q.** `CCCCS(=N)(=O)CCC(N)C(=O)O` (racemic) [DL-Buthionine-[S,R]-sulfoximine] was tested. Which remaining activity at 1.25 µM ([1]; Well no.=363) did it give?
**A.** 96.1%

**Q.** What about the remaining activity at 3.75 µM ([2]; Well no.=363) of the same compound?
**A.** 93.8%

**Q.** Which remaining activity at 1.25 µM ([1]; Well no.=7366) does the source give for `CCCCCCCCCCC[C@@H](C[C@@H]1OC(=O)[C@H]1CCCCCC)OC(=O)[C@H](CC(C)C)NC=O` [Orlistat] here?
**A.** 101%

**Q.** What about the remaining activity at 3.75 µM ([2]; Well no.=7366) of the same compound?
**A.** 101%

**Q.** With `Cc1cccc(Cc2c[nH]cn2)c1C` [Detomidine HCl] as the compound, how does the remaining activity at 1.25 µM ([1]; Well no.=5062) read?
**A.** 103%

**Q.** And the remaining activity at 3.75 µM ([2]; Well no.=5062)?
**A.** 105%

— paper PMC8286840, “Identifying SARS-CoV-2 antiviral compounds by screening for small molecule inhibitors of Nsp3 papain-like protease” (Biochemical Journal, 2021)
